The record followed here is patent US7528140B2, “Substituted pyrrolo[3,2-d]pyrimidines as glycogen synthase kinase (GSK) inhibitors” (Teijin Limited, priority 2002, dated 2009).

Where only a bound is given, the exact number is not on record here.

For the experiment, the target named is recombinant human GSK-3β (Homo sapiens, UniProt P49841). Nature of the experiment: Measurement of GSK-3 enzyme activity inhibition (32P phosphorylation of phospho-glycogen synthase peptide-2). The experiment is classed as biochemical. The conditions noted are these: 20 μM ATP, 20 minutes at room temperature, read-out: GSK-3 enzyme inhibiting activity (IC50). As for the experimental part: Measurement of GSK-3 Enzyme Activity Inhibition
recombinant human GSK-3β, sequence (P49841 whole entry): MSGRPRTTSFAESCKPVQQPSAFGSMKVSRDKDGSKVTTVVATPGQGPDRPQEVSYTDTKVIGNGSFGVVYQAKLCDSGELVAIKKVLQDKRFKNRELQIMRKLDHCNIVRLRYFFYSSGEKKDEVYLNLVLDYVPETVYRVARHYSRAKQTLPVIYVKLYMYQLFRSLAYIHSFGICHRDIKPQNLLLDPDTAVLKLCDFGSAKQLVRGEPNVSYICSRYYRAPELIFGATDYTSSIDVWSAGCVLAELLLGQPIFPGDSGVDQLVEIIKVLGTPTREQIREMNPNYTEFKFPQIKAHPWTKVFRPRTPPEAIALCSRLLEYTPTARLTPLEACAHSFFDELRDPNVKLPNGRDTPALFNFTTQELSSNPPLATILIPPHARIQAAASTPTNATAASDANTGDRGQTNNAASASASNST
After adding 25 μL of phospho-glycogen synthase peptide-2 substrate solution [6 μM phospho -glycogen synthase peptide-2, 20 μM ATP, 16 mM MOPS buffer (pH 7.0), 0.2 mM EDTA, 20 mM magnesium acetate, 0.1 μCi [γ-^32P]ATP (specific activity: approximately 110 TBq/mmol)]to 5 μL of the test compound using 5% dimethylsulfoxide as the solvent, reaction was initiated by further addition of 20 μL of a GSK-3β enzyme solution [10 mU recombinant human GSK-3β, 20 mM MOPS buffer (pH 7.0), 1 mM EDTA, 0.1% polyoxyethylene lauryl ether (23 Lauryl Ether; Brij 35), 5% glycerol, 0.1% β-mercaptoethanol]. After conducting the reaction for 20 minutes at room temperature, an equivalent volume of a 200 mM phosphoric acid solution was added to quench the reaction, and 90 μL of the reaction product was adsorbed onto a MultiScreen PH plate (Millipore) and rinsed with a 100 mM phosphoric acid solution. After drying the plate, 30 μL of Micro Scint-O (Packard BioScience) was added, and the cpm was measured with a scintillation counter to determine the inhibiting activity. Phospho GS Peptide2 is […]P)-Glu-Asp-Glu-Glu-Glu (SEQ ID NO:1).

In general, IC50 refers to the concentration needed to halve the response being measured. As to `N#Cc1c(C=Cc2ccccc2)[nH]c2c(=O)[nH]cnc12` [1-0006], the IC50 fell in the range of 1000 to 10000 nM.

As for `N#Cc1c(-c2ccccc2)[nH]c2c(=O)[nH]cnc12` [1-0007], the half-maximal inhibitory concentration (IC50) fell in the range of 1000 to 10000 nM.

As for `COc1ccccc1-c1[nH]c2c(=O)[nH]cnc2c1C#N` [1-0038, 6-(2-methoxyphenyl)-4-oxo-3-hydropyrrolo[3,2-d]pyrimidine-7-carbonitrile], the IC50 was in the range of 1000 to 10000 nM.

`CC(C)CCn1c(-c2ccccc2)c(C#N)c2nc[nH]c(=O)c21` [1-0113]: the IC50 was 1000 to 10000 nM.

In the case of `CC(C)CCn1c(-c2ccccc2)c(C#N)c2nc[nH]c(=S)c21` [1-0114], the IC50 lay within 1000 to 10000 nM.

As to `CC(C)(C)Cn1c(-c2ccccc2)c(C#N)c2nc[nH]c(=S)c21` [1-0129], the IC50 is 1000 to 10000 nM.

With `CCCCCn1c(-c2ccccc2)c(C#N)c2nc[nH]c(=O)c21` [1-0132], the IC50 was in the range of 1000 to 10000 nM.

As for `N#Cc1c(-c2ccccc2)n(CCCO)c2c(=O)[nH]cnc12` [1-0194], the IC50 fell in the range of 1000 to 10000 nM.

Consider `COCCn1c(-c2ccccc2)c(C#N)c2nc[nH]c(=S)c21` [1-0208], for which the IC50 was in the range of 1000 to 10000 nM.

On to `CCOCCn1c(-c2ccccc2)c(C#N)c2nc[nH]c(=S)c21` [1-0215], for which the IC50 was 1000 to 10000 nM.

For `COCCCn1c(-c2ccccc2)c(C#N)c2nc[nH]c(=O)c21` [1-0227], the IC50 lay in the range of 1000 to 10000 nM.

As for `CSCCCn1c(-c2ccccc2)c(C#N)c2nc[nH]c(=O)c21` [1-0263], the IC50 was in the range of 1000 to 10000 nM.

For `N#Cc1c(-c2ccccc2)n(CC2CC2)c2c(=S)[nH]cnc12` [1-0275], the half-inhibitory concentration (IC50) fell in the range of 1000 to 10000 nM.

Turning to `N#Cc1cn(Cc2ccccc2)c2c(=S)[nH]cnc12` [1-0301], the IC50 was in the range of 1000 to 10000 nM.

As for `N#Cc1c(C2CC2)n(Cc2ccccc2)c2c(=O)[nH]cnc12` [1-0303], the IC50 fell in the range of 1000 to 10000 nM.

In the case of `N#Cc1c(-c2ccccc2)n(CCc2ccccc2)c2c(=S)[nH]cnc12` [1-0312], the IC50 is 1000 to 10000 nM.

As for `N#Cc1c(-c2ccccc2)n(CCCc2ccccc2)c2c(=O)[nH]cnc12` [1-0320], the IC50 lay within 1000 to 10000 nM.

In the case of `Cc1c(C#N)c2nc[nH]c(=S)c2n1CCCc1ccccc1` [1-0323], the IC50 was in the range of 1000 to 10000 nM.

Take `N#Cc1c(-c2ccccc2)n(CCOc2ccccc2)c2c(=S)[nH]cnc12` [1-0372]: the IC50 was in the range of 1000 to 10000 nM.

As to `Cn1cccc1-c1c(C#N)c2nc[nH]c(=S)c2n1CCN` [1-0459, 5-(2-aminoethyl)-6-(1-methylpyrrol-2-yl)-4-thioxo-3-hydropyrrolo[3,2-d]pyrimidine-7-carbonitrile], the IC50 was in the range of 1000 to 10000 nM.

With `N#Cc1c(-c2c(F)cccc2F)n(CCN)c2c(=S)[nH]cnc12` [1-0460, 5-(2-aminoethyl)-6-(2,6-difluorophenyl)-4-thioxo-3-hydropyrrolo[3,2-d]pyrimidine-7-carbonitrile], the IC50 was in the range of 1000 to 10000 nM.

`N#Cc1c(-c2ccccc2)n(CCc2nc(-c3ccccc3)no2)c2c(=S)[nH]cnc12` [1-0495, 6-phenyl-5-[2-(3-phenyl(1,2,4-oxadiazol-5-yl))ethyl]-4-thioxo-3-hydropyrrolo[3,2-d]pyrimidine-7-carbonitrile]: the IC50 was in the range of 1000 to 10000 nM.

For the molecule `N#Cc1c(-c2ccccc2)n(CCN2C(=O)c3ccccc3C2=O)c2c(=S)[nH]cnc12` [1-0501, 5-[2-(1,3-dioxoisoindolin-2-yl)ethyl]-6-phenyl-4-thioxo-3-hydropyrrolo[3,2-d]pyrimidine-7-carbonitrile], the IC50 lay in the range of 1000 to 10000 nM.

In the case of `CC(C)OCCCn1c(-c2cc(O)cc(O)c2)c(C#N)c2nc[nH]c(=S)c21` [1-0529, 6-(3,5-dihydroxyphenyl)-5-[3-(methylethoxy)propyl]-4-thioxo-3-hydropyrrolo[3,2-d]pyrimidine-7-carbonitrile], the IC50 was 10 to 30 nM.

Turning to `N#Cc1c(-c2ccccc2)n(CCCOc2ccccc2)c2c(=S)[nH]cnc12` [1-0537], the IC50 was in the range of 1000 to 10000 nM.

As for `N#Cc1c(-c2cccc(C(=O)O)c2)[nH]c2c(=S)[nH]cnc12` [1-0687, 3-(7-cyano-4-thioxo-3-hydropyrrolo[4,5-d]pyrimidin-6-yl)benzoic acid], the IC50 was in the range of 1000 to 10000 nM.

For `N#Cc1c(-c2cccc(O)c2)[nH]c2c(=S)[nH]cnc12` [1-0698, 6-(3-hydroxyphenyl)-4-thioxo-3-hydropyrrolo[3,2-d]pyrimidine-7-carbonitrile], the half-inhibitory concentration (IC50) is 10 to 30 nM.

For the molecule `N#Cc1c(-c2ccccc2Br)[nH]c2c(=S)[nH]cnc12` [1-0751, 6-(2-bromophenyl)-4-thioxo-3-hydropyrrolo[3,2-d]pyrimidine-7-carbonitrile], the IC50 lay within 30 to 100 nM.

`N#Cc1c(-c2ccccc2N)[nH]c2c(=S)[nH]cnc12` [1-0753, 6-(2-aminophenyl)-4-thioxo-3-hydropyrrolo[3,2-d]pyrimidine-7-carbonitrile]: the IC50 is 1000 to 10000 nM.

For the molecule `N#Cc1c(-c2ccccc2Br)[nH]c2c(=O)[nH]cnc12` [1-1040, 6-(2-bromophenyl)-4-oxo-3-hydropyrrolo[3,2-d]pyrimidine-7-carbonitrile], the half-inhibitory concentration (IC50) lay in the range of 1000 to 10000 nM.

As for `CC(C)(C)OC(=O)NCCCn1c(-c2ccccc2)c(C#N)c2nc[nH]c(=O)c21` [2-0208], the IC50 is 1000 to 10000 nM.

On to `CC(=O)OCCCn1c(-c2ccccc2)c(C#N)c2nc[nH]c(=O)c21` [2-0519], for which the IC50 was 1000 to 10000 nM.

Take `N#Cc1c(-c2ccccc2)n(CCCOC(=O)c2ccco2)c2c(=O)[nH]cnc12` [2-0530]: the half-maximal inhibitory concentration (IC50) was in the range of 1000 to 10000 nM.

Consider `N#Cc1c(-c2ccccc2)n(CCNC(=O)c2ccccc2)c2c(=S)[nH]cnc12` [2-0558], for which the IC50 was in the range of 30 to 100 nM.

Turning to `Cc1ccoc1-c1c(C#N)c2nc[nH]c(=S)c2n1CCNC(=O)C(F)(F)F` [2-0601, N-{2-[7-cyano-6-(3-methyl(2-furyl))-4-thioxo(3-hydropyrrolo[3,2-d]pyrimidin-5-yl)]ethyl}-2,2,2-trifluoroacetamide], the IC50 lay in the range of 10 to 30 nM.

In the case of `Cn1cccc1-c1c(C#N)c2nc[nH]c(=S)c2n1CCNC(=O)C(F)(F)F` [2-0604, N-{2-[7-cyano-6-(1-methylpyrrol-2-yl)-4-thioxo(3-hydropyrrolo[3,2-d]pyrimidin-5-yl)]ethyl}-2,2,2-trifluoroacetamide], the IC50 was in the range of 30 to 100 nM.

With `Cc1ccc(N)c(C(=O)NCCn2c(-c3ccccc3)c(C#N)c3nc[nH]c(=S)c32)c1` [2-0635, (2-amino-5-methylphenyl)-N-[2-(7-cyano-6-phenyl-4-thioxo(3-hydropyrrolo[3,2-d]pyrimidin-5-yl))ethyl]carboxamide], the IC50 is 30 to 100 nM.

As to `Cc1ccoc1-c1c(C#N)c2nc[nH]c(=O)c2n1CCNC(=O)C(F)(F)F` [2-1664, N-{2-[7-cyano-6-(3-methyl(2-furyl))-4-oxo(3-hydropyrrolo[3,2-d]pyrimidin-5-yl)]ethyl}-2,2,2-trifluoroacetamide], the IC50 was 1000 to 10000 nM.

On to `N#Cc1c(-c2ccccc2)n(CCNCc2ccccc2)c2c(=S)[nH]cnc12` [2-1775, 6-phenyl-5-{2-[benzylamino]ethyl}-4-thioxo-3-hydropyrrolo[3,2-d]pyrimidine-7-carbonitrile], for which the IC50 was 1000 to 10000 nM.

Regarding `N#Cc1c(-c2ccccc2)n(CCNC(=O)Nc2cccc(C(=O)O)c2)c2c(=S)[nH]cnc12` [2-1777, 3-({N-[2-(7-cyano-6-phenyl-4-thioxo-3-hydropyrrolo[3,2-d]pyrimidin-5-yl)ethyl]carbamoyl}amino)benzoic acid], the 50% inhibitory concentration (IC50) lay within 30 to 100 nM.

Regarding `N#Cc1c(-c2ccco2)n(CCNC(=O)C(F)(F)F)c2c(=S)[nH]cnc12` [2-1804, N-[2-(7-cyano-6-(2-furyl)-4-thioxo(3-hydropyrrolo[3,2-d]pyrimidin-5-yl))ethyl]-2,2,2-trifluoroacetamide], the IC50 fell in the range of 30 to 100 nM.

Consider `N#Cc1c(-c2ccccc2)n(CCn2c(=O)[nH]c3ccccc3c2=O)c2c(=S)[nH]cnc12` [2-1849, 5-[2-(2,4-dioxo(1,3-dihydroquinazolin-3-yl))ethyl]-6-phenyl-4-thioxo-3-hydropyrrolo[3,2-d]pyrimidine-7-carbonitrile], for which the IC50 is 1000 to 10000 nM.

Turning to `CN(CCn1c(-c2ccccc2)c(C#N)c2nc[nH]c(=S)c21)C(=O)C(F)(F)F` [2-1855], the IC50 is 30 to 100 nM.

For `CN(C(=O)CCn1c(-c2ccccc2)c(C#N)c2nc[nH]c(=S)c21)c1ccccc1` [3-0099], the IC50 lay in the range of 1000 to 10000 nM.

On to `N#Cc1c(-c2ccccc2)n(CCC(=O)N2CCCC2)c2c(=S)[nH]cnc12` [3-0148], for which the IC50 lay within 30 to 100 nM.

`N#Cc1c(-c2ccccc2)n(CCC(=O)N2CCCCC2)c2c(=S)[nH]cnc12` [3-0152]: the IC50 was less than 10 nM.

As for `N#Cc1c(-c2ccco2)n(CCC(=O)N2CCCCC2)c2c(=S)[nH]cnc12` [3-0156], the IC50 was less than 10 nM.

On to `N#Cc1c(-c2ccccc2)n(CCC(=O)N2CCC(C(=O)O)CC2)c2c(=S)[nH]cnc12` [3-0231, 1-[3-(7-cyano-6-phenyl-4-thioxo-3-hydropyrrolo[3,2-d]pyrimidin-5-yl)propanoyl]piperidine-4-carboxylic acid], for which the half-maximal inhibitory concentration (IC50) is less than 10 nM.

With `N#Cc1c(-c2ccccc2)n(CCC(=O)N2CCOCC2)c2c(=S)[nH]cnc12` [3-0294], the 50% inhibitory concentration (IC50) is 30 to 100 nM.

For `CCNC(=O)CCn1c(-c2ccccc2)c(C#N)c2nc[nH]c(=S)c21` [3-1792], the IC50 was in the range of 30 to 100 nM.

`CCOC(=O)CCn1c(-c2ccccc2)c(C#N)c2nc[nH]c(=S)c21` [4-0005, ethyl 3-(7-cyano-6-phenyl-4-thioxo-3-hydropyrrolo[3,2-d]pyrimidin-5-yl)propanoate]: the half-inhibitory concentration (IC50) is 1000 to 10000 nM.

With `CCOC(=O)CCCn1c(-c2ccccc2)c(C#N)c2nc[nH]c(=O)c21` [4-0030], the IC50 lay in the range of 1000 to 10000 nM.
